Experimental findings from patent US11213536B2, “Acylated compounds for the treatment of ocular pathologies” (CONSEJO SUPERIOR DE INVESTIGACIONES CIENTÍFICAS, priority 2016, dated 2022) are described below.

Entries after “also recorded” stand apart in the source; their conditions may differ.

For data set [1], the system named is zebrafish larva (Danio rerio). Nature of the data set: Neuroprotection in PTZ-induced neurotoxicity model, AChE activity in zebrafish larvae. It counts as in vivo. The conditions noted are these: 5 dpf larvae, 10 μM, 5 mM PTZ for 6 hours. How it is done:
The objective of this assay was to analyze the protective effect of compound 2 and of the resveratrol (RES) control in a model of neurotoxicity induced by the neurotoxin pentylenetetrazole (PTZ). As an experimental model, the zebrafish larva (Danio rerio) was used to study the effect of the compounds on acetylcholinesterase activity (AChE) in larvae at 5 days post-fertilization (dpf).
Zebrafish embryos were seeded in 50 ml of dilution water (AD) in a Petri dish and grown to 5 dpf (larval stage). […] Next, the larvae were transferred using a Pasteur pipette to a 24-well microplate, so that each well contained five larvae, making ten replicates per condition. First, the pre-treatment of the 5 dpf larvae was performed. […] After this incubation period, all of the larvae were examined, and it was determined that the general state of the larvae was totally normal, without any visible anomaly or anomalous behavior. […]
Determination of AChE levels. […] In addition, the determination of total protein of each experimental group was carried out according to the technical study protocol (Quantification of protein by BCA, as a normalization process). Finally, the AChE levels determined in the control group were taken as a reference measurement and deemed to be 100%.

In data set [2] the test system is rd10 mouse. Description: rd10 mice retinal degeneration model, subretinal injection. The class given is in vivo. The conditions noted are these: 5 mM subretinal. An excerpt: The rd10 mouse is a model of retinitis pigmentosa due to a mutation in the Pde6b gene that results in the degeneration of the photoreceptors that begins on postnatal day 15-16 (P15-16) and is completed within one month (P30). In this model, the degeneration begins in the rods and then continues with cones and finally the retinal pigment epithelium (RPE). The degeneration in this model occurs as a consequence of the loss of the function of Pde6b, which ultimately leads to a continuous entry of Ca^++ in the […] with a significant production of reactive oxygen species (ROS), infiltration of macrophages, and activation of pro-apoptotic proteins. At the histological level, a loss of nuclei is observed in the outer nuclear layer of the retina (the layer in which photoreceptor nuclei are located), as well as the loss of the specific markers of rods (rhodopsin) and cones (opsin). The electroretinogram (ERG), which measures the electrical response of the retina to visual stimuli, is markedly affected in rd10 mice, with progressive loss of the amplitude of the a- and b-waves of the ERG. […] To evaluate the protective effect of our compounds on the retina, we first used the rd10 model. Rd10 homozygous mice were injected in the subretinal space at P13 (two to three days before the onset of degeneration) with 1 μl of vehicle (5% DMSO in PBS) or resveratrol RES (5 mM), as well as compound 2 (5 mM). Then, 15 days after having been injected, fundus, ERG, and histological changes were evaluated in the untreated mice, those treated with the vehicle, and those treated with RES and compound 2. […] The ERG in the treated mice was also evaluated 15 days after the injections. The amplitude of the a- and b-waves in the ERGs were quantified, and the statistical analysis was performed using two-way ANOVA and post hoc DMS. A value of p<0.05 was considered significant. […] Finally, the immunofluorescence study was performed in order to observe the presence of markers of rods (rhodopsin) and cones (opsin) (FIG. 10). The number of photoreceptor nuclei present in the outer nuclear layer (ONL), as well as the immunostaining of rhodopsin, was much greater in rd10 mice treated with compound 2 than in those treated with RES and in the controls.

For data set [3], the system named is RAW 264.7 macrophages. Description: Mitigation of LPS damage: RAW 264.7 macrophage viability (MTT). It counts as cell-based. The conditions noted are these: LPS 100 ng/ml, RES 10 μM, MTT 24 h. How it is done:
RAW 264.7 macrophages were cultured in P75 with high-glucose DMEm supplemented with penicillin/streptomycin and 10% inactivated fetal bovine serum.
The cell viability assays with RAW macrophages were prepared in 96-well plates by seeding 25,000 cells/well in a volume of 100 μl and incubating the cells for 4 h before the addition of the compounds. The compounds to be tested were dissolved in DMSO and added in three different concentrations (1, 10 and 100 μM) in order to determine their toxicity. The final percentage of DMSO in each well was adjusted to 1%. The cell viability was evaluated 24 h after the addition of the compounds by means of the MTT assay according to the manufacturer's method. Mean values and standard deviations were calculated from at least 8 different measurements from several independent experiments.
Testing of mitigation of damage caused by the addition of LPS. The RAW 264.7 macrophages were cultured according to the procedure described above. […] The cell viability was evaluated 24 h after the addition of the compounds by means of the MTT assay according to the manufacturer's method. Mean values and standard deviations were calculated from at least 8 different measurements from several independent experiments.

As to `CCCCCCCC(=O)OCC1OC(Oc2cc(O)cc(/C=C/c3ccc(O)cc3)c2)C(O)C(O)C1O` [Compound 2, trans-resveratrol-3-O-(6′-O-octanoyl)-β-D-glucopyranoside], in data set [1], the “AChE activity decrease induced by PTZ” value was “significantly prevents the decrease in AChE activity”. Besides, in data set [2] (15 days), the “amplitude of the a- and b-waves in ERG” value is “preserved in the group treated with compound 2 in a greater proportion”; the “thickness of the outer nuclear layer (ONL)” value was “greater than in the group treated with RES”. Moreover, in data set [2] (15 days after injection), the “pigment accumulation in the fundus” value is listed as “absence of pigment; also recorded: lower amount of pigment accumulation”. The “b-wave amplitude in dark-adapted ERG” value in data set [2] (15 days, flash intensities 0.2, 1, 3 and 10 cd s/m^2) is “significantly increased; also recorded: significant increase”. In data set [2] (15 days, immunofluorescence), the “labeling of rhodopsin and opsin” value is on record as “more intense”; the “number of photoreceptor nuclei in the outer nuclear layer (ONL) and immunostaining of rhodopsin” value is “much greater”.

Regarding `Oc1ccc(C=Cc2cc(O)cc(O)c2)cc1` [RES, resveratrol, reference compound], in data set [3], the “recovery of cell viability” value was “up to 82%”.
